The text below walks through data of patent US20150071856A1, “ANTAGONISTIC PEPTIDES FOR FRIZZLED-1 AND FRIZZLED-2” (Universiteit Maastricht, priority 2013, published 2015).

In experiment [1] the target is T1, hFzd-4 (Homo sapiens, UniProt Q9ULV1).
T1 construct: expressed in transfected cells; host or cells: HEK293 superTOPflash (transient, Fugene6, pcDNA3.1/hygro)
T1 sequence (Q9ULV1 37-537): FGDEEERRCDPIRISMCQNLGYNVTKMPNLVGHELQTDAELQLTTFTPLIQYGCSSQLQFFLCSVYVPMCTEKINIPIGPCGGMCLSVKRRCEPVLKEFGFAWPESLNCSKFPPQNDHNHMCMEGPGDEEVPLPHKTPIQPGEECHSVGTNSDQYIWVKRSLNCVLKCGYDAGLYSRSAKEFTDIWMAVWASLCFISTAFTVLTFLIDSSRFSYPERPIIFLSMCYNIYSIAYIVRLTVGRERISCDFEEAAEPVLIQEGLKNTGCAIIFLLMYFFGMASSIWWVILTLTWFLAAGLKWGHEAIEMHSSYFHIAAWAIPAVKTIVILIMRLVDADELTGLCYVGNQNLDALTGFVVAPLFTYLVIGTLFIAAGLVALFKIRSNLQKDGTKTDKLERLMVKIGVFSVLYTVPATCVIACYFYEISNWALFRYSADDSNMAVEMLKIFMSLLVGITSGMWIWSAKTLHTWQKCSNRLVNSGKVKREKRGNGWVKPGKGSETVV
As to the kind of experiment: Receptor specificity: luciferase in HEK293 superTOPflash cells overexpressing hFzd-4. It counts as cell-based. The note with it: UM206 1.10^−8 M. Here is the method: In FIG. 3, Panel E, the efficacy of UM206 to block the Wnt3a-induced activation of luciferase activity in HEK293 superTOPflash cells transfected with different Fzds is shown.
(§1) The cell lines were cultured in 75 cm^2 culture flasks (Corning, Schiphol, the Netherlands) in Dulbeco's modified essential medium with L-glutamine (2 mM), 10% fetal calf serum (Invitrogen, Merelbeke, Belgium), and 1% gentamycin (Sigma-Aldrich, Zwijndrecht, The Netherlands). Before starting the experiment, the cell lines were treated with plasmocin 25 μg/ml (Invivogen, Toulose, France) and tested with a mycoalert mycoplasma detection kit (Lonza, Rockland Me., USA). Cells were transiently transfected with Fugene6 (Roche, Indianapolis Ind., USA) with plasmid DNA, pcDNA3.1/hygro (Invitrogen) with frizzled-1/2/4 or Wnts 3a-5a or with pcDNA3.0 (Invitrogen) containing the β-catenin or frizzled-5 sequence. After transfection, the cells were cultured for 24 hours in conditioned medium, collected from the cultured L-cells, L-cells with Wnt3a or 5a (Invitrogen). At the same moment the antagonist was added.

Experiment [2] has as its system canonical Wnt signaling. As to the kind of experiment: Activity assay (Example 1): TOPflash luciferase reporter in HEK (HEK293-superTOPflash) cells, receptor not specified. It is filed as cell-based, human. Here is the method:
(§2) Human embryonic kidney (HEK) cells were used for screening. These cells have a luciferase construct stably transfected into the genome (see FIG. 2A), such that when the frizzled receptor is activated and β-catenin is increased, the luciferase is activated by transcription and light can be measured.
(§3) The peptides were tested by transfecting the frizzled-1 or the frizzled-2 receptor and addition of UM206(S-S) to the cell culture. For testing antagonistic activity, UM206 was added and the natural ligand Wnt3a was added, which is a natural stimulus for the canonical pathway.
Transfection and Luciferase Measurement:
Plate cells in 12-well plates
(§4) Day 2: Transfection 12-Well Plates • heat Fugene6 and DNA 15 minutes at RT • 2 ml serum-free medium in tube • add 3 μl fugene • add 2 μg DNA • incubate 30 minutes at RT • wash with PBS • add 50 μl transfectiemix • add 1 ml antibiotica-free medium
(§5) Day 3: Add Conditioned Medium or UM206
(§6) Day 4: Luciferase Activity Measurements • remove medium • wash with PBS • add 500 μl ⅕ lysisbuffer • shake for 60 minutes • centrifuge in tube • 20 μl lysaat and 50 μl luciferase in new tube for measurement • vortex • measure
(§7) Three areas of high homology that contained two cysteines are underlined (UM207), (UM208) and (UM206). In FIGS. 9B through 9D, the inhibitory effect of these three peptides on Wnt3a-induced luciferase activity in HEK293-superTOPflash is shown. […] Again, the peptides by themselves had no effect on the luciferase activity.
as §1
For the luciferase experiments not in HEK cells, the cells were additionally transfected with a TOPflash construct, eight TCF/LEF binding sites cloned into the pTA-Luc vector. Luciferase activity was measured using luciferase assay system (Promega, Madison Wis., USA).
Background: Reporter assays use an easily measured gene product as a stand-in for the process of interest.

The target of experiment [3] is T2, frizzled-1 (rFzd-1) (Rattus norvegicus, UniProt Q08463).
T2 construct: expressed in transfected cells; host or cells: HEK293 superTOPflash (transient, Fugene6, pcDNA3.1/hygro)
In words: Activity assay: luciferase reporter in HEK superTOPflash cells transfected with frizzled-1. It counts as cell-based. Here is the method:
as §2, §3, §4, §5, §6, §7
To determine the inhibitory constant of UM206-8, HEK293-superTOPflash cells were transfected with either rFzd-1 or -2 and incubated with Wnt3a (10^−9M) in the presence of increasing concentrations of either of the peptides (FIG. 15). For UM206, a biphasic inhibition curve was observed that was best fitted with a two-binding-state model.
as §1

Experiment [4] concerns myocardial infarction. As to the kind of experiment: Hemodynamic measurements (Millar catheter, left ventricle) of mice after myocardial infarction. It counts as in vivo. Particulars: UM206-treated groups post-MI. Here is the method:
Cardiac function was further assessed using a Millar pressure recording catheter inserted into the left ventricle. […] These observations further underscore the beneficial effect of UM206 treatment on cardiac function post-MI.
The animals were anaesthetized with urethane ([…], i.p., Sigma-Aldrich) followed by intubation and connected to a rodent ventilator (Hugo Sachs, March-Hugstetten, Germany). Body temperature was maintained at 37° C. The mice were then allowed to stabilize prior to hemodynamic measurements. A high-fidelity catheter tip micromanometer (Mikro-tip1.4F, SPR-671; Millar Instruments, Houston Tex., USA) was inserted through the right carotid artery into the left ventricular cavity. Ventricular pressure was measured. Maximal positive and negative pressure development (+dP/dt and −dP/dt) and heart rate were determined on a beat-to-beat basis. The heart was then stimulated by an i.v. ramp-infusion of dobutamine (Sigma-Aldrich) using a micro-injection pump (Model 200 Series, KdScientific, Boston, Mass., USA).

Experiment [5] relates to C-FIT cells. As to the kind of experiment: Differentiation assay (α-SMA, fibroblast to myofibroblast) in C-FIT cells. It is filed as cell-based, rat. From the text: For this assay, we used the same C-FIT cells as for the migration assay to study a second component of wound healing, namely, differentiation of fibroblasts into myofibroblasts. When wound healing starts, cells called fibroblasts migrate into the scar. These cells have no contractile properties; however, they can differentiate into myofibroblasts, which can actively contract. To study which signals influence the transition from fibroblast into myofibroblasts, we treated the C-FIT cells and harvested them for mRNA isolation. Next, we tested them for the presence of specific markers for myofibroblasts by reverse transcription of the mRNA and subsequent quantitative PCR analysis, which are absent in fibroblasts. One of those markers is α-smooth muscle actin, which makes the cells contract.
RNA was isolated using the Trizol method (Invitrogen). For the RT-PCR, the RNA was transcribed to cDNA with Iscript™ cDNA synthesis kit (Bio-Rad, Hercules Calif., USA), Syber green (Eurogentec, Ghent, Belgium) was used for the detection of cDNA levels and cyclophilin served as the house keeping gene. In Supplementary methods panel 5, the primer sequences are shown.

“Also recorded” adds a separate entry of the source. Residues, ends and D or L forms follow the SMILES beside them.

T2 sequence (Q08463 69-641): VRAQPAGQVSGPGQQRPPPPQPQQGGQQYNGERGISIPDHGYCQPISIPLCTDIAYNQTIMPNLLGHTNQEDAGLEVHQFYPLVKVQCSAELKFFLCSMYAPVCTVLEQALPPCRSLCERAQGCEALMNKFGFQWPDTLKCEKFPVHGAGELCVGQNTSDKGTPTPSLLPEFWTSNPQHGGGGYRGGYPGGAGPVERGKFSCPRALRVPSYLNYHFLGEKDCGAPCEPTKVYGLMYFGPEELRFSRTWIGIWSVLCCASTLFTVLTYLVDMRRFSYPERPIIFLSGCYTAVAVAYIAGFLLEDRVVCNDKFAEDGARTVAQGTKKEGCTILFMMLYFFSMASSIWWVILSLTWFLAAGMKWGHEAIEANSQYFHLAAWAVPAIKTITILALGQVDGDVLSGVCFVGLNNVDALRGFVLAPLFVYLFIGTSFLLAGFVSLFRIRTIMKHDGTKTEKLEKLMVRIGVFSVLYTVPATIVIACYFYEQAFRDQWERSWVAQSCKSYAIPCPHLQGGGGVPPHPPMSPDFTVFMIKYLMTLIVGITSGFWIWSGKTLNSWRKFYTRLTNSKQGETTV

As for `CSCC[C@H](NC(=O)CNC(=O)[C@H](CCC(=O)O)NC(=O)[C@H](CO)NC(=O)[C@@H](NC(=O)[C@H](CCCCN)NC(=O)[C@H](CC(N)=O)NC(=O)[C@H](CS)NC(C)=O)[C@@H](C)O)C(=O)N[C@@H](CC(=O)O)C(=O)NCC(=O)N[C@@H](CS)C(=O)N[C@@H](CCC(=O)O)C(=O)N[C@@H](CC(C)C)C(N)=O` [UM206, Ac-Cys-Asn-Lys-Thr-Ser-Glu-Gly-Met-Asp-Gly-Cys-Glu-Leu-NH2] (Ac-CNKTSEGMDGCEL-NH2), the “effect on Wnt3a-induced luciferase activity, frizzled-4” value in experiment [1] is reported as “no effect”. Moreover, the “IC50” value in experiment [2] is reported as “in the nanomolar range”. In experiment [2] (model of Example 1), the “activity on the frizzled receptor: antagonist or agonist” value is “very potent antagonist; also recorded: very potent inhibitor of the canonical Wnt signaling”. Also, the “effect of the peptide by itself on luciferase activity” value in experiment [2] (without Wnt3a) is “none of the three peptides by itself could induce an increase in luciferase activity; also recorded: no effect”. In experiment [3] (Wnt3a-induced luciferase activity, antagonists at 1.10^−9 M), the “% of inhibition for Fzd-1” value was 72.15%. In addition, the “block of Wnt3a-induced luciferase activity, rFzd-1” value in experiment [3] (peptide 1.10^−8 M) is on record as “blocked almost completely; also recorded: abolished the induction of luciferase activity almost completely”. Also, the “positive and negative dP/dt versus saline” value in experiment [4] was “higher positive dP/dt and a lower negative dP/dt value”. Besides, in experiment [5], the “effect on Wnt3a/Wnt5a-induced differentiation, α-SMA levels” value is reported as “completely blocks this differentiation”.
